US20140227303A1, “METHODS FOR DIAGNOSING AND MONITORING DISEASES OR CONDITIONS USING DISEASE MODIFIED BIOMOLECULES AND MEASUREMENT OF A FUNCTIONAL IMMUNE RESPONSE” (VIRACOR-IBT LABORATORIES, priority 2011, published 2014)
Entries after “also recorded” stand apart in the source; their conditions may differ. Read-outs that look alike come from different tables or passages of the source. Square brackets hold non-standard residues; d marks the D form. Ends that are not written are not given here. Peptide text beside a SMILES is read from it. Cit = NC(=O)NCCC[C@H](N)C(=O)O

Key:
PBMCs = experiment: Cellular stimulation assay: PBMCs incubated with individual peptides DMB 1011 to DMB 1016, TNFα and IL6 by AlphaLisa; format: cell-based, human; settings: for Stimulation response of peptides with same sequence but only one or two citrullines (in words): compared with fully citrullinated peptide; for Stimulation of cells to produce TNF and IL-6 (in words): fibrinogen based peptides with 3 citrulline residues
Procedure: Experiment 2. Cytokine Production after PBMC Stimulation Using Individual Peptides from DMB 1011 to DMB 1016
Experimental setting: Peripheral blood mononuclear cells (PBMCs) were prepared from freshly collected blood using a Ficoll gradient method. The cellular stimulation assay was performed by incubating PBMCs with individual peptides DMB 1011 to DMB 1016. Approximately 300,000 to 500,000 PBMC cells were used for each stimulation assay in a cell culture AIM V serum free medium (Life Technologies) within a 96 well round bottom plate. Concentrations of TNFα and IL6 in culture supernatants were determined after 20 hrs incubation using the AlphaLisa® method.

PBMCs from RA patients = experiment: Cellular stimulation assay: PBMCs incubated with individual peptides DMB 1001-DMB 1010, cytokines in supernatant by AlphaLisa; format: cell-based, human; settings: peptide 10 μg/ml, 20 hrs incubation
Procedure: Experiment 1: Cytokine Production after Stimulation of PBMCs from RA Patients with Individual Peptides DMB 1001-DMB 1010
Experimental setting: Peripheral blood mononuclear cells (PBMCs) were prepared from freshly collected blood using a Ficoll gradient method. The cellular stimulation assay was performed by incubation of PBMCs with the individual peptides DMB 1001-DMB 1010 at a concentration of 10 μg/ml. Approximately 300,000 to 500,000 PBMC cells were used for each stimulation assay in a cell culture AIM V serum free medium (Life Technologies) within a 96 well round bottom plate. TNFα, IL6 and IL1b concentrations in culture supernatants were determined using the AlphaLisa® method after 20 hrs of incubation.

[1] = Peptide solubility in water; format: physicochemical

| Compound | TNFα concentration in culture supernatant (PBMCs from RA patients; PBMC Sample 1) [pg/mL] | TNFα concentration in culture supernatant (PBMCs from RA patients; PBMC Sample 2) [pg/mL] | other results |
| --- | --- | --- | --- |
| GGVYAT[Cit]SSAVRL[Cit]SSVP [DMB 1012] | – | – | Stimulation response of peptides with same sequence but only one or two citrullines (in words) (PBMCs): greatly diminished |
| GP[Cit]VVE[Cit]HQSACKDS [DMB 1007] | 4.3 | 4.6 | – |
| lipopolysaccharide [LPS, reference compound] | 1708.9 | 508.9 | – |
| NEEGFFSA[Cit]GHRPLDKK [DMB 1003] | 4.1 | 2.2 | – |
| KIHAREIFDSRGNPTVE [DMB 1010, Alpha enolase peptide, not citrullinated] | 2.3 | 3.6 | – |
| NEEGFFSARGHRPLDKK [DMB 1004, Fibrinogen beta chain peptide, not citrullinated] | 2.5 | 6.7 | – |
| GGVYATRSSAV[Cit]L[Cit]SSVP [DMB 1013] | – | – | Stimulation response of peptides with same sequence but only one or two citrullines (in words) (PBMCs): greatly diminished |
| HQCHQESTRGRSRGRCGRSGS [DMB 1006, Filaggrin peptide, not citrullinated] | 2.7 | 7.6 | – |
| GGVYATRSSAV[Cit]LRSSVP [DMB 1014] | – | – | Stimulation response of peptides with same sequence but only one or two citrullines (in words) (PBMCs): greatly diminished; Stimulation of cells to produce TNF and IL-6 (in words) (PBMCs): failed to stimulate cells |
| KIHA[Cit]EIFDS[Cit]GNPTVE [DMB 1009] | 5.0 | 6.4 | – |
| GPRVVERHQSACKDS [DMB 1008, Fibrinogen alpha chain peptide, not citrullinated] | 7.1 | 7.5 | – |
| VYATRSSAVRLRSSVP [DMB 1002, Vimentin-derived peptide, not citrullinated] | 7.7 | 2.7 | IL1b concentration in cell culture (PBMCs from RA patients; PBMC Sample 1): 1; IL6 concentration in cell culture (PBMCs from RA patients; PBMC Sample 1): 0; IL1b concentration in cell culture (PBMCs from RA patients; PBMC Sample 2): 0; IL6 concentration in cell culture (PBMCs from RA patients; PBMC Sample 2): 0 |
| GGV[Cit]GP[Cit]VVE[CIT]HQSACKD (GGV[Cit]GP[Cit]VVE[Cit]HQSACKD) [DMB 1015] | – | – | Stimulation of cells to produce TNF and IL-6 (in words) (PBMCs): failed to stimulate cells |
| HQCHQEST[Cit]GRSRGRCGRSGS (cysteine pairing not given here) [DMB 1005] | 2.1 | 3.6 | – |
| CC(C)C[C@H](NC(=O)[C@H](CCCNC(N)=O)NC(=O)[C@@H](NC(=O)[C@H](C)NC(=O)[C@H](CO)NC(=O)[C@H](CO)NC(=O)[C@H](CCCNC(N)=O)NC(=O)[C@@H](NC(=O)[C@H](C)NC(=O)[C@H](Cc1ccc(O)cc1)NC(=O)[C@@H](NC(=O)CNC(=O)CN)C(C)C)[C@@H](C)O)C(C)C)C(=O)N[C@@H](CCCNC(N)=O)C(=O)N[C@@H](CO)C(=O)N[C@@H](CO)C(=O)N[C@H](C(=O)N1CCC[C@H]1C(=O)O)C(C)C [DMB 1011, GGVYAT[Cit]SSAV[Cit]L[Cit]SSVP] | – | – | Water solubility (in words) [1]: improved the peptide solubility in water; also recorded: water soluble; Water solubility (in words) ([1]; listed as SEQ ID NO: 11): increases the water solubility |
| CC(C)C[C@H](NC(=O)[C@H](CCCNC(N)=O)NC(=O)[C@@H](NC(=O)[C@H](C)NC(=O)[C@H](CO)NC(=O)[C@H](CO)NC(=O)[C@H](CCCNC(N)=O)NC(=O)[C@@H](NC(=O)[C@H](C)NC(=O)[C@H](Cc1ccc(O)cc1)NC(=O)[C@@H](N)C(C)C)[C@@H](C)O)C(C)C)C(=O)N[C@@H](CCCNC(N)=O)C(=O)N[C@@H](CO)C(=O)N[C@@H](CO)C(=O)N[C@H](C(=O)N1CCC[C@H]1C(=O)O)C(C)C [DMB 1001, VYAT[Cit]SSAV[Cit]L[Cit]SSVP] (H-VYAT[Cit]SSAV[Cit]L[Cit]SSVP-OH; N-terminus and C-terminus assumed) | – | – | Water solubility (in words) [1]: not water soluble |
